Measurements published in patent publication US20120232038A1, “CRYSTALLINE FORMS OF (3R, 3AS, 6AR) - HEXAHYDROFURO [2,3-B] FURAN-3-YL (1S,2R) - (1-{4-[ (DIETHOXYPHOSPHORYL) METHOXY] PHENY1}-3-HYDROXY-4- [4-METHOXY-N- (2-METHYLPROPYL) BENZENESUL - FONAMIDO] BUTAN-2-YL) CARBAMATE” (Gilead Sciences, Inc., priority 2009, published 2012).

How the values were obtained:
Assay type in all cases: physicochemical
[1] = Moisture uptake of Compound I amorphous material at room temperature under controlled relative humidity
From the text: (§1) Other benefits that crystalline Form I offers include but are not limited to purification and isolation of the crystalline form with respect to the solution and facilitation of storage and handling during the formulation development and manufacturing of drug product.

[2] = Dynamic vapor sorption of Compound I crystalline Form I
From the text: as §1

[3] = Form stability on extended exposure to water (water slurry, XRPD); conditions: slurried in water, 2 week sample, XRPD (FIG. 6)
Protocol: Approximately 15-50 mg of Compound I are weighed and transferred to each of fifteen vials each equipped with a mini magnetic stir bar. The starting material used for this experiment is an amorphous solid based on the X-ray powder diffraction (XRPD) pattern (See FIG. 1). To each vial is added 1 mL of various solvents. The slurries are allowed to stir for two weeks at room temperature (˜22° C.). XRPD characterization of the excess solids were performed at ˜1 week and ˜2 week time points. A sample of 300 μL of the suspension is removed from each vial, transferred to a centrifuge filter (Costar, 0.45 micron) and centrifuged at 1000 rpm for 2 minutes. Solids in the wet cake form are analyzed using XRPD analysis (PANalytical X'Pert PRO X-ray powder diffractometer). This diffractometer uses Cu-Ka radiation and it operates under reflection mode. Scan range is from 2 to 40 degree 2 theta. After air drying the small sample, (XRPD) analysis is performed again to monitor any change in the diffraction pattern between the wet and dry material. TGA is run on the saturated solution to determine the solubility of the equilibrating solids in the solvent. […]

| SMILES | Weight gain after 5 days ([1]; 75% Relative Humidity) [%] | Weight gain after 11 days ([1]; 75% Relative Humidity) [%] | Weight gain after 5 days ([1]; 97% Relative Humidity) [%] | hygroscopicity [2] | water absorbed ([2]; 90% relative humidity) [%] | solid form after extended exposure to water [3] |
| --- | --- | --- | --- | --- | --- | --- |
| CCOP(=O)(COc1ccc(CC(NC(=O)OC2CO[C@H]3OCC[C@@H]23)[C@H](O)CN(CC(C)C)S(=O)(=O)c2ccc(OC)cc2)cc1)OCC (stereo partly drawn) [Compound I amorphous material] | 0.6 | 1.0 | 3.8 | – | – | – |
| CCOP(=O)(COc1ccc(CC(NC(=O)OC2CO[C@H]3OCC[C@@H]23)[C@H](O)CN(CC(C)C)S(=O)(=O)c2ccc(OC)cc2)cc1)OCC (stereo partly drawn) [Form I] | – | – | – | not hygroscopic | 0.4 | remains as the same form |
